The assay deals with Integrin alpha-IIb/beta-3 (Homo sapiens, UniProt P08514+P05106). Briefly: Inhibition of human alphaIIb-beta3 integrin in platelet aggregation assay.
Integrin alpha-IIb/beta-3, sequence (P05106 27-788 limits assumed): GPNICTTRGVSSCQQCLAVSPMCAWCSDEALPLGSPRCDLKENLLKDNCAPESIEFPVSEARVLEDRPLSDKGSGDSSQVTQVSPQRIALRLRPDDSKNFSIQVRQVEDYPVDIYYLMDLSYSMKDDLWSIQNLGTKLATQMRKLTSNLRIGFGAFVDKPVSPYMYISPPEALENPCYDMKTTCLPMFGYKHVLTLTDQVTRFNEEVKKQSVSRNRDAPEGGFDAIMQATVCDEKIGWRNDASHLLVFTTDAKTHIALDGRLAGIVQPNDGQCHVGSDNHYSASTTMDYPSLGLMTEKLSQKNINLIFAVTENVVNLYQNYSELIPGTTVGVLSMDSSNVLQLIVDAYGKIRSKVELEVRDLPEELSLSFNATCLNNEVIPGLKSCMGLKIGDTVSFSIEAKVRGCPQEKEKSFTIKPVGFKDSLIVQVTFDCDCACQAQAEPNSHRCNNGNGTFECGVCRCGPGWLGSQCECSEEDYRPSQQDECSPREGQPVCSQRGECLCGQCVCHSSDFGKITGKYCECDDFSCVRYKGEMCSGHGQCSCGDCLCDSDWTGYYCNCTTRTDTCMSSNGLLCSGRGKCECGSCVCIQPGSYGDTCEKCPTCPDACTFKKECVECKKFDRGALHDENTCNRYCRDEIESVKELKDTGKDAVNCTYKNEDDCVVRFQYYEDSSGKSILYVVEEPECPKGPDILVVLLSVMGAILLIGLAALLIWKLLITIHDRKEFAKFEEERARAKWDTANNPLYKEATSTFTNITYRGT
Integrin alpha-IIb/beta-3, sequence (P08514 32-887 limits assumed): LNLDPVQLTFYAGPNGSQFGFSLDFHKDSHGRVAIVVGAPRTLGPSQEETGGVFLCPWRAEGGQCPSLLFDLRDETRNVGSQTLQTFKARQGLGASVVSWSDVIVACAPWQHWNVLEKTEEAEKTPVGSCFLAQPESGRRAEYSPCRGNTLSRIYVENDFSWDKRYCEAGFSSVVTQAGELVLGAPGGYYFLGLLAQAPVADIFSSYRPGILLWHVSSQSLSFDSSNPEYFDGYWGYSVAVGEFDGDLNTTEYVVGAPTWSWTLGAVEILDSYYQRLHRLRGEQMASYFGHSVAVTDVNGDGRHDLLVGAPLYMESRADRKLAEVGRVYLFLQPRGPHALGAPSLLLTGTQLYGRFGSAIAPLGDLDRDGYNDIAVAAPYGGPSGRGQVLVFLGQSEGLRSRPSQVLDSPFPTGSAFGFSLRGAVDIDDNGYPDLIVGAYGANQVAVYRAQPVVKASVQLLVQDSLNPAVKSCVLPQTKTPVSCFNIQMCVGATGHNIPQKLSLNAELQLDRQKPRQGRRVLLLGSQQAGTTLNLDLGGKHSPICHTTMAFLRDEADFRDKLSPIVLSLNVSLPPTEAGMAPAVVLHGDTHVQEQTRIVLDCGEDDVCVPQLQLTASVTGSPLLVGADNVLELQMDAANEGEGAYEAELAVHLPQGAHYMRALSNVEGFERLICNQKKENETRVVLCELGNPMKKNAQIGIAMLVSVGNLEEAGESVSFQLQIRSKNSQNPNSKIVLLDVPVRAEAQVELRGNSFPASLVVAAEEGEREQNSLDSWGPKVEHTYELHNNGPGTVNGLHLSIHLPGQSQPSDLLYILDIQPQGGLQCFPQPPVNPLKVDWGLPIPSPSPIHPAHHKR
Integrin alpha-IIb/beta-3, sequence (P08514 891-1039 limits assumed): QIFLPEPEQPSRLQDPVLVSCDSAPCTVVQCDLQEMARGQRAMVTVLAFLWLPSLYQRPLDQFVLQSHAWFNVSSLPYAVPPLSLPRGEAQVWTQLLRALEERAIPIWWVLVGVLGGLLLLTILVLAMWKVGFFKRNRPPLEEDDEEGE
`CNc1cccc(CCOc2ccc3c(c2)CN(CC(F)(F)F)C(=O)[C@H](CC(=O)O)C3)n1` [[(S)-8-[2-(6-Methylamino-pyridin-2-yl)-ethoxy]-3-oxo-2-(2,2,2-trifluoro-ethyl)-2,3,4,5-tetrahydro-1H-benzo[c]azepin-4-yl]-acetic acid]: the half-inhibitory concentration (IC50) (commonly the concentration needed to halve the response being measured) is over 10000 nM.
For `CC1(C)[C@@H]2CC[C@@]1(CS(=O)(=O)N[C@@H](CNC(=O)c1ccc(CCc3ccc4c(n3)NCCC4)cc1)C(=O)O)C(=O)C2` [2-((S)-(1R,7S)-7,7-Dimethyl-2-oxo-bicyclo[2.2.1]hept-1-ylmethanesulfonylamino)-3-{4-[2-(5,6,7,8-tetrahydro-[1,8]naphthyridin-2-yl)-ethyl]-benzoylamino}-propionic acid], inhibition was half-maximal at 157 nM (IC50).
For the compound `O=C(O)C[C@H](NC(=O)CN1CC[C@H](CCc2ccc3c(n2)NCCC3)C1=O)c1cccnc1` [3-(2-{(S)-2-Oxo-3-[2-(5,6,7,8-tetrahydro-[1,8]naphthyridin-2-yl)-ethyl]-pyrrolidin-1-yl}-acetylamino)-3-(S)-pyridin-3-yl-propionic acid], the half-maximal inhibitory concentration (IC50) is over 10000 nM.
`O=C(NC[C@H](NS(=O)(=O)c1ccccc1)C(=O)O)c1ccc(N2CCNCC2)cc1` [2-((S)-Benzenesulfonylamino)-3-(4-piperazin-1-yl-benzoylamino)-propionic acid] gave an IC50 of 16 nM.
In turn, `O=C(O)CC(NC(=O)CCCCc1ccc2c(n1)NCCC2)c1cncnc1` (stereo not given) [3-Pyrimidin-5-yl-3-(5-5,6,7,8-tetrahydro-[1,8]naphthyridin-2-yl-pentanoylamino)-propionic acid] returned an IC50 of over 10000 nM.

The values are drawn from BindingDB's records for doi:10.1021/jm030146j (Merck Research Laboratories, 2003).
